The results in this text go back to patent publication US20160166531A1, “METHODS AND COMPOSITIONS FOR TREATING CARDIOVASCULAR DISORDERS” (Zafgen, Inc., priority 2010, published 2016).

“And” between values parts separate entries of the source, which are not always exact repeats. Equal values may be shown once.

Assay [1] concerns total cholesterol. The experiment in a line: Total cholesterol in rats after four weeks of treatment. It counts as in vivo. Details: Total cholesterol levels, Mean: unit not given here. The following applies: for Total cholesterol levels, Mean: vehicle mean 86.7. Here is the method: Rats were administered 1 or 3 mg/kg fumagillol daily for a total of four weeks of treatment.
Assay [2] concerns total cholesterol. Nature of the assay: Total cholesterol in human subjects with elevated total cholesterol. Type of assay: in vivo. The following applies: human subjects with initial fasting total cholesterol in excess of 180 mg/dl, twice weekly for four weeks, n=10, p=0.018 (FIG. 3). Here is the method: Human subjects with initial fasting total cholesterol levels in excess of 180 mg/dl were administered Compound A twice weekly for a total of four weeks of treatment.

Another assay deals with thrombomodulin. Nature of the assay: Thrombomodulin levels in obese patients. Type of assay: in vivo, human. The following applies: obese patients of Example 6 (FIG. 7). The source says: The expression of another cardiovascular risk marker, thrombomodulin, was examined in the patients described in Example 6. […] Similarly to Example 6, the reduction in thrombomodulin was independent of effects on metabolic parameters and body weight.

Assay [3] deals with low density lipoprotein cholesterol (LDLc). As to conditions: obese patients of Example 6 (FIG. 8). The protocol:
(§1) The compound was intravenously administered to each patient of a cohort (except for a placebo cohort) twice weekly for 26 days. Each of patients in the three non-placebo cohorts received either 0.1 mg/m^2 (cohort 1); 0.3 mg/m^2 (cohort 2); or 0.9 mg/m^2 (cohort 3) doses of the compound at the time of administration. The trial was conducted under the appropriate government and medical supervision.

For a further assay, the system named is C-Reactive Protein (CRP). Nature of the assay: Serum C-Reactive Protein in obese patients, intravenous twice weekly for 26 days. It counts as in vivo, human. Here is the method: as §1
Assay [4] has as its system apolipoprotein(a) (apoLp(a)). Nature of the assay: Apolipoprotein(a) levels in obese patients. It counts as in vivo, human. The following applies: obese patients of Example 6 (FIG. 9). An excerpt:
The expression of another cardiovascular risk marker, apolipoprotein(a) (apoLp(a)), was examined in the patients described in Example 6. […] Similarly to Example 6, the reduction in apoLp(a) was independent of effects on body weight.

Another assay relates to PCSK9. The experiment in a line: Liver mRNA levels of PCSK9 in treated mice. It counts as in vivo. As to conditions: C57BL/6 mice, at day 3 and after (FIG. 5). An excerpt:
Liver mRNA levels of PCSK9 were examined in C57BL/6 mice treated with ZGN-201. FIG. 5 depicts the hepatic PCSK9 mRNA (% of vehicle control) vs. days of treatment with ZGN-201.

The subject of another assay is FGF-21. The experiment in a line: R&D Systems Quantikine Mouse FGF-21 Immunoassay, plasma FGF-21 after ten days of treatment. Type of assay: in vivo. The source says: In Table 1, animals #1.1, 1.2, 1.3, 2.1, 2.2 and 2.3 were vehicle-treated and animal #3.1, 3.2, 3.3, 4.1, 4.2 and 4.3 were ZGN-201-treated. Sample 3.1 was above the level of quantification.
FIG. 4 indicates the average (±SEM) plasma FGF-21 levels for all study groups.

Assay [5] relates to C57BL/6 mice conditioned on a high fat diet. Nature of the assay: Oral fumagillin in mice conditioned on a high fat diet (DIO). It counts as in vivo. An excerpt: Oral administration of the MetAP2 inhibitor fumagillin causes an increase in circulating ketone bodies, as measured by concentration of beta hydroxybutyrate, which indicates an increase in the breakdown of stored fat and activation of ketogenesis.

The mark [6] stands for this setting: 1 mg/kg po daily for four weeks.
Where [7] appears, read: 3 mg/kg po daily for four weeks.

Take `CO[C@@H]1[C@H](O)CC[C@]2(CO2)[C@H]1[C@@]1(C)O[C@@H]1CC=C(C)C` [Fumagillol, fumagillol]: in the assay with total cholesterol [1] (setting [6]), the “Total cholesterol levels, % of vehicle” value came to 76.5% and the “Total cholesterol levels, Mean” value was determined as 66.3. Also, in the assay with total cholesterol [1] (setting [7]), the “Total cholesterol levels, % of vehicle” value is recorded as 63.7% and the “Total cholesterol levels, Mean” value amounted to 55.2.

For the molecule `CO[C@@H]1[C@H](OC(=O)C=Cc2ccc(OCCN(C)C)cc2)CC[C@]2(CO2)[C@H]1[C@@]1(C)O[C@@H]1CC=C(C)C` [Compound A, O-(4-dimethylaminoethoxycinnamoyl)fumagillol], in the assay on total cholesterol [2], the Total cholesterol levels entry is “reduced”.

For the molecule `CO[C@@H]1[C@H](OC(=O)C=Cc2ccc(OCCN(C)C)cc2)CC[C@]2(CO2)[C@H]1[C@@]1(C)O[C@@H]1CC=C(C)C.O=C(O)C(=O)O` [6-O-(4-dimethylaminoethoxyl)cinnamoyl fumagillol oxalate], the thrombomodulin levels entry with thrombomodulin is given as “decreases”. Also, the LDL-c levels result in assay [3] is recorded as “decreases”. Moreover, the “subjects with elevated CRP concentrations (above 3.0 μg/ml) reduced to levels within the normal range” value in the assay on C-Reactive Protein (CRP) (0.9 mg/m^2 dose level, by the 26th day of treatment, p<0.01) is “six out of eight”. Further, the “levels of C-Reactive Protein (CRP) in patients' serum” value in the assay with C-Reactive Protein (CRP) (obese patients, iv twice weekly for 26 days, 0.1, 0.3 or 0.9 mg/m^2 (FIG. 6)) is “decrease”. Besides, the “apoLp(a) levels” value in [4] is “decreases”.

For the molecule `CO[C@@H]1[C@H](OC(=O)/C=C/C=C/C=C/C=C/C(=O)O)CC[C@]2(CO2)[C@H]1[C@@]1(C)O[C@@H]1CC=C(C)C` [fumagillin], in the assay with PCSK9, the “hepatic PCSK9 mRNA (% of vehicle control)” value is reported as “reduced PCSK9 expression”. In addition, in the assay with FGF-21 (animals 3.1 to 4.3, one value per animal, listed as ZGN-201), the “FGF-21 absolute numbers, Average of duplicates (single animals)” value was “AQL and 2248.25 pg/ml and 2514.66 pg/ml and 2166.60 pg/ml and 1194.64 pg/ml and 3597.58 pg/ml”. Besides, the “FGF-21 MEAN of treated group” value with FGF-21 (vehicle group mean 991.47) turned out to be 2344.34 pg/mL. Further, in assay [5] (DIO C57BL/6 mice, diet admixture 1 mg/kg daily for 250 days (FIG. 1C)), the “hydroxybutyrate concentration at longer time points” value is “Increased hydroxybutyrate concentration persisted”. For the same molecule, in assay [5] (DIO C57BL/6 mice, oral gavage 0.3 or 3 mg/kg daily for 10 days (FIG. 1A)), the beta hydroxybutyrate concentrations result is recorded as “increase”. Moreover, the “free fatty acid concentration” value in assay [5] (DIO C57BL/6 mice, oral gavage 0.3 or 3 mg/kg daily for 10 days (FIG. 1B)) is on record as “without an increase”. Also, the sensitivity to insulin result in [5] (mice on a high fat diet) was “normalizes”. Moreover, the “Fasted glucose and insulin levels, insulin-glucose product” value in [5] (mice on high fat diet, 1 mg/kg fumagillin, versus age-matched lean mice and untreated DIO mice (FIG. 2A-2C)) is reported as “more similar to that of age-matched lean mice than that of untreated mice on a high fat diet”.
